Assay results reported in paper PMC11199504, “New hemisynthetic derivatives of sphaeropsidin phytotoxins triggering severe endoplasmic reticulum swelling in cancer cells” (Scientific Reports, 2024).
Like-named read-outs stand apart in the source and are kept apart here.

Tests used:
B16F10 = experiment: MTT colorimetric assay, B16F10; type: cell-based; conditions: Mus musculus, B16-F10; 72 h treatment; mean ± SEM; sensitive to apoptosis; read-out: IC50 determined by MTT assays, B16F10
Excerpt: (§1) Cancer cell lines were obtained from either the European Collection of Cell Cultures (ECACC; Salisbury, UK) or the American Type Culture Collection (ATCC; Manassas, VA). The two glioma cell lines were the U373 (ECACC code 08061901) and Hs683 (ATCC HTB-138) cell lines. The carcinoma cell lines were the A549 non-small cell carcinoma cell line (ATCC code CCL 185) and the MCF-7 mammary breast carcinoma cell line (ATCC code HTB-22). The melanoma cell lines were the mouse B16F10 cells (ATCC code CRL-6475) and the human SKMEL-28 cells (ATCC code HTB-72). The ovarian cancer cell line A2780 and its cisplatin-resistant subline A2780cis were obtained from Sigma-Aldrich (St. Louis, MO, USA). Colon cancer HCT116 cells were obtained from ATCC (CCL-247) and the oxaliplatin-resistant subline HCT116/OxR established in the W. Berger lab[59]. The HeLa cell derivative KB-3-1 and the colchicine-selected, highly ABCB1-overexpressing subline KB-C-1 were generously donated by Dr. D. W. Shen, Bethesda, MD. RKOp53wt colon cancer cells together with the RKOp53KO (homozygous knock-out) subline[60] were generously provided by Dr. Vogelstein from John Hopkins University, Baltimore. The correct origin of all cell models was confirmed by STR during performance of the experiments. All cell lines were cultured in RPMI1640 culture medium supplemented with 10% heat-inactivated fetal bovine serum, 2% L-glutamine (0.6 mg/mL), 2% penicillin/streptomycin (200 IU/mL and 200 μg/mL) and 0.1 mg/mL gentamicin.
(§2) The MTT (3-(4,5-dimethylthiazol-2-yl)-2,5-diphenyl tetrazolium bromide) colorimetric assay has been conducted as described previously. Briefly, cells were seeded 24 h before their treatment with each compound for a period of 72 h. The concentrations tested ranged from 10 nM to 100 µM. Each assay was conducted in sextuplicates. The number of independent experiments is mentioned in the legend of the tables.

A549 = experiment: MTT colorimetric assay, A549; type: cell-based; conditions: Homo sapiens, 72 h treatment, mean ± SEM of six replicates of one experiment (1: 7, 13: 6 independent experiments), resistant to apoptosis, read-out: IC50 determined by MTT assays, A549
Excerpt: as §1, §2

Hs683 = experiment: MTT colorimetric assay, Hs683; type: cell-based; conditions: Homo sapiens, Hs 683; 72 h treatment; mean ± SEM; sensitive to apoptosis; read-out: IC50 determined by MTT assays, Hs683
Excerpt: as §1, §2

MCF7 = experiment: MTT colorimetric assay, MCF7; type: cell-based; conditions: Homo sapiens, 72 h treatment, mean ± SEM, sensitive to apoptosis, read-out: IC50 determined by MTT assays, MCF7
Excerpt: as §1, §2

SKMEL-28 = experiment: MTT colorimetric assay, SKMEL-28; type: cell-based; conditions: Homo sapiens, SK-MEL-28; 72 h treatment; mean ± SEM; resistant to apoptosis; read-out: IC50 determined by MTT assays, SKMEL-28
Excerpt: as §1, §2

[1] = test system: A549, SKMEL-28, U373, MCF7, Hs683, B16F10; experiment: MTT colorimetric assay, mean of the six cell lines; type: cell-based; conditions: for IC50: mean over the six cell lines, 72 h treatment, read-out: IC50 determined by MTT assays, Mean; for activity in the cancer cell panel: MTT, alone
Excerpt: as §1, §2

U373 = experiment: MTT colorimetric assay, U373; type: cell-based; conditions: Homo sapiens, U373 MG; 72 h treatment; mean ± SEM; resistant to apoptosis; read-out: IC50 determined by MTT assays, U373
Excerpt: as §1, §2

[2] = test system: 60 cancer cell line panel; conditions: NCI database value; ref NCI database; read-out: LC50 (NCI); cited from earlier work
KB-3-1 = experiment: MTT assay, KB-3-1 (parental sensitive); type: cell-based; conditions: Homo sapiens, KB 3-1, 72 h, read-out: IC50 determined by MTT assays, KB-3-1
Excerpt: as §1, §2
(§3) SI Table 1: IC50 determined by MTT assays. Mean concentration (± standard deviation) in µM required to
(§4) reduce the viability of cells by 50% after a 72 h treatment relative to the control.
(§5) Parental sensitive models Drug-resistant models

KB-C-1 = experiment: MTT assay, KB-C-1 (ABCB1-overexpressing); type: cell-based; conditions: KBC-1, 72 h, read-out: IC50 determined by MTT assays, KB-C-1
Excerpt: as §1, §2, §3, §4, §5

RKO/P53wt = experiment: MTT assay, RKO/P53wt (parental sensitive); type: cell-based; conditions: 72 h treatment; ± standard deviation; parental sensitive model; read-out: IC50 determined by MTT assays, RKO/P53wt
Excerpt: as §1, §2, §3, §4, §5

RKO/p53ko = experiment: MTT assay, RKO/p53ko; type: cell-based; conditions: 72 h treatment; ± standard deviation; drug-resistant model; read-out: IC50 determined by MTT assays, RKO/p53ko
Excerpt: as §1, §2, §3, §4, §5

A2780R = experiment: MTT assay, A2780R (cisplatin-resistant); type: cell-based; conditions: 72 h treatment; ± standard deviation; drug-resistant model; read-out: IC50 determined by MTT assays, A2780R
Excerpt: as §1, §2, §3, §4, §5

A2780 = experiment: MTT assay, A2780 (parental sensitive); type: cell-based; conditions: 72 h treatment; ± standard deviation; parental sensitive model; read-out: IC50 determined by MTT assays, A2780
Excerpt: as §1, §2, §3, §4, §5

Hct116/OxR = experiment: MTT assay, Hct116/OxR (oxaliplatin-resistant); type: cell-based; conditions: 72 h treatment; ± standard deviation; drug-resistant model; read-out: IC50 determined by MTT assays, Hct116/OxR
Excerpt: as §1, §2, §3, §4, §5

Hct116 = experiment: MTT assay, Hct116 (parental sensitive); type: cell-based; conditions: 72 h treatment; ± standard deviation; parental sensitive model; read-out: IC50 determined by MTT assays, Hct116
Excerpt: as §1, §2, §3, §4, §5

SMILES | IC50 (B16F10) [µM] | IC50 (A549) [µM] | IC50 (Hs683) [µM] | IC50 (MCF7) [µM] | IC50 (SKMEL-28) [µM] | IC50 ([1]; 72 h) [µM] | IC50 (U373) [µM] | CC50 [2] [µM] | further results
COC(=O)CCC=CC1(C)C=C2C(=O)C3(O)OC(=O)C4(CCCC(C)(C)C34)C2(O)CC1 (centres unmarked) [Compound 7] | 2.33 ± 0.29 | 4.5 ± 0.07 | 3.63 ± 0.15 | 6.88 ± 0.26 | 5.06 ± 0.58 | 5.03 ± 0.82 | 7.75 ± 0.31 |  | 
CC(=O)N(C)c1ccc(Nc2cc(C)nc3ccc4[nH]cnc4c23)cc1 [Acodazole] |  |  |  |  |  |  |  | 114 | 
C=CC1(C)C=C2C(=O)C3(OC(=O)CCCCC(=O)O)OC(=O)C4(CCCC(C)(C)C34)C2(O)CC1 (centres unmarked) [Compound 5] | 0.78 ± 0.09 | 1.92 ± 0.07 | 1.96 ± 0.18 | 2.09 ± 0.07 | 1.61 ± 0.11 | 1.7 ± 0.19 | 1.82 ± 0.14 |  | 
CC1(C=CCCCC(=O)O)C=C2C(=O)C3(O)OC(=O)C4(CCCC(C)(C)C34)C2(O)CC1 (centres unmarked) [Compound 8] | 81.3 ± 2.42 | > 100 | 85.3 ± 5.25 | > 100 | > 100 | > 94 | > 100 |  | activity in the cancer cell panel [1]: inactive; IC50 [1]: > 94.4 µM
COc1cccc2c1C(=O)c1c(O)c3c(c(O)c1C2=O)C[C@@](O)(C(=O)CO)C[C@@H]3O[C@H]1C[C@H](N)[C@H](O)[C@H](C)O1 [doxorubicin] |  |  |  |  |  |  |  |  | IC50 (KB-3-1): 0.059 ± 0.03 µM; IC50 (KB-C-1): > 250 µM
COC(=O)CCCC=CC1(C)C=C2C(=O)C3(O)OC(=O)C4(CCCC(C)(C)C34)C2(O)CC1 (centres unmarked) [Compound 6] | 1.81 ± 0.14 | 2.66 ± 0.04 | 3.33 ± 0.1 | 2.48 ± 0.13 | 2.74 ± 0.13 | 2.64 ± 0.2 | 2.81 ± 0.08 |  | 
CNC(=O)ON(C(C)=O)C(=O)NC [Caracemide] |  |  |  |  |  |  |  | 625 | 
CC1(C=CCCBr)C=C2C(=O)C3(O)OC(=O)C4(CCCC(C)(C)C34)C2(O)CC1 (centres unmarked) [Compound 11] | 2.55 ± 0.13 | 2 ± 0.13 | 2.99 ± 0.07 | 2.89 ± 0.08 | 2.77 ± 0.18 | 2.67 ± 0.15 | 2.81 ± 0.08 |  | 
COc1ccc(C(=O)/C(Br)=C\C(=O)O)cc1 [Cytembena] |  |  |  |  |  |  |  | 802 | 
C=CCCCc1ccc2ccc3cccc4ccc1c2c34 [Compound 14, reference compound] | 73.1 ± 1.32 | 78.8 ± 1.26 | 96.12 ± 0.5 | 76 ± 1.55 | > 100 | > 87.3 | > 100 |  | activity in the cancer cell panel [1]: inactive
CCCCC=CC1(C)C=C2C(=O)C3(O)OC(=O)C4(CCCC(C)(C)C34)C2(O)CC1 (centres unmarked) [Compound 9] | 0.52 ± 0.02 | 0.63 ± 0.03 | 1.11 ± 0.14 | 0.47 ± 0.03 | 1.15 ± 0.11 | 0.88 ± 0.16 | 1.39 ± 0.15 |  | 
N.N.[Cl][Pt][Cl] [cisplatin] |  |  |  |  |  |  |  |  | IC50 (RKO/P53wt): 2 ± 0.3 µM; IC50 (RKO/p53ko): 3.7 ± 1.2 µM; IC50 (A2780R): > 10 µM; IC50 (A2780): 1.8 ± 0.09 µM
CC/C(=C(\c1ccccc1)c1ccc(OCCN(C)C)cc1)c1ccccc1 [Tamoxifen] |  |  |  |  |  |  |  | 26 | 
O=C1[O][Pt]2([NH][C@@H]3CCCC[C@H]3[NH]2)[O]C1=O [oxaliplatin] |  |  |  |  |  |  |  |  | IC50 (Hct116/OxR): 22.1 ± 2.3 µM; IC50 (Hct116): 0.6 ± 0.08 µM
CC1(C=CCCc2ccc3ccc4cccc5ccc2c3c45)C=C2C(=O)C3(O)OC(=O)C4(CCCC(C)(C)C34)C2(O)CC1 (centres unmarked) [Compound 24] | 0.098 ± 0.04 | 1.2 ± 0.2 | 2.4 ± 0.1 | 1.2 ± 0.2 | 1.3 ± 0.14 | 1.4 ± 0.34 | 2.2 ± 0.2 |  | 
COc1ccc2c(c1)-c1nn(CCCN(C)C)c3ccc([N+](=O)[O-])c(c13)N2 [Pyrazolo acridine] |  |  |  |  |  |  |  | 23.3 | 
CC1(C=CCCCCc2ccc3ccc4cccc5ccc2c3c45)C=C2C(=O)C3(O)OC(=O)C4(CCCC(C)(C)C34)C2(O)CC1 (centres unmarked) [Compound 23] | 0.27 ± 0.01 | 0.6 ± 0.02 | 0.64 ± 0.02 | 0.42 ± 0.03 | 0.37 ± 0.01 | 0.49 ± 0.07 | 0.66 ± 0.02 |  | 
CC1(C=CCCCCBr)C=C2C(=O)C3(O)OC(=O)C4(CCCC(C)(C)C34)C2(O)CC1 (centres unmarked) [Compound 10] | 2 ± 0.12 | 2.96 ± 0.12 | 4.35 ± 0.27 | 5.36 ± 0.58 | 3.07 ± 0.1 | 3.79 ± 0.54 | 5.01 ± 0.18 |  | 
CC1(C=Cc2ccccc2)C=C2C(=O)C3(O)OC(=O)C4(CCCC(C)(C)C34)C2(O)CC1 (centres unmarked) [Compound 12] | 2.52 ± 0.21 | 1.61 ± 0.14 | 2.72 ± 0.11 | 3.06 ± 0.22 | 2.29 ± 0.09 | 2.54 ± 0.22 | 3.06 ± 0.07 |  | 
O=c1n(CC2CO2)c(=O)n(CC2CO2)c(=O)n1CC1CO1 (centres unmarked) [Teroxirone] |  |  |  |  |  |  |  | 387 | 
COc1cc(NS(C)(=O)=O)ccc1Nc1c2ccccc2nc2ccccc12 [Amsacrine] |  |  |  |  |  |  |  | 25 | 
